Source: article PMC8929358 (Pharmacology Research & Perspectives, 2021)

Key:
[1] = healthy subjects; oral; cited from earlier work
[2] = Glucuronidation of opicapone in human liver microsomes; format: in vitro ADME; settings: human liver microsomes (HLM), pH 7.5
UGT 2B17 = target: T1, UGT 2B17 (Homo sapiens, UniProt O75795); test: Glucuronidation of opicapone by recombinant UGT2B17; format: in vitro ADME; settings: 20 μM opicapone; incubation period of 60 min
T1 sequence (O75795 24-530): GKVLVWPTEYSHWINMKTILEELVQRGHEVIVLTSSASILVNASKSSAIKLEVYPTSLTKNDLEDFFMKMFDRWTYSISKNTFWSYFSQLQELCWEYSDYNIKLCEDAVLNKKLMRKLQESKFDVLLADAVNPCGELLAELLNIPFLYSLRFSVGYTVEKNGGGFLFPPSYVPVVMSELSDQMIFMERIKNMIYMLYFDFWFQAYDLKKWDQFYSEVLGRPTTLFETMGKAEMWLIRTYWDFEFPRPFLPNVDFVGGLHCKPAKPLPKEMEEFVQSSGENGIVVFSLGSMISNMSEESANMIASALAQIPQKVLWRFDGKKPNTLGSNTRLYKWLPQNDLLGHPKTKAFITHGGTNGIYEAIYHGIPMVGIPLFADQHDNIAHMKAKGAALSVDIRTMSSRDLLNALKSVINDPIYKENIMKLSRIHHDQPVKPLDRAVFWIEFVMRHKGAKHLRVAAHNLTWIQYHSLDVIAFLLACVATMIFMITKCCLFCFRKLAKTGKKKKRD

[3] = Sulfate conjugation of opicapone in human liver S9; format: in vitro ADME; settings: human liver S9 fraction (HLS9), pH 7.4
UGT 1A1 = target: T2, UGT 1A1 (Homo sapiens, UniProt P22309); test: Glucuronidation of opicapone by recombinant UGT1A1; format: in vitro ADME; settings: 20 μM opicapone
T2 sequence (P22309 26-533): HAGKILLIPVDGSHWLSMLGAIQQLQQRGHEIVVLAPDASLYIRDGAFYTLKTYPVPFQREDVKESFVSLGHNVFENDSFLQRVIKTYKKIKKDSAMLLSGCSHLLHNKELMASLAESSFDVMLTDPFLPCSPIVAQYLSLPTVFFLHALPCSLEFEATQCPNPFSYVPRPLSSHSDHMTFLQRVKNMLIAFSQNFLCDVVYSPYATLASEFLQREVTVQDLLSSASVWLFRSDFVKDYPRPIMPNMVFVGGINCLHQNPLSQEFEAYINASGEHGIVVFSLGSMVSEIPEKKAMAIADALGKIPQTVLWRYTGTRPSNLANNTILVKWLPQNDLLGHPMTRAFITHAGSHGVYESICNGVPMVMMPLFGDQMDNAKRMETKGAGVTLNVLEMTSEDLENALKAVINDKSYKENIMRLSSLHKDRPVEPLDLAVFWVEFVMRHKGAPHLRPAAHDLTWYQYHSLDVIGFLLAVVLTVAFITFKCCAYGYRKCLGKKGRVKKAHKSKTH

UGT1A4 = target: T3, UGT1A4 (Homo sapiens, UniProt P22310); test: Glucuronidation of opicapone by recombinant UGT1A4; format: in vitro ADME; settings: 20 μM opicapone; incubation period of 60 min
T3 sequence (P22310 29-534): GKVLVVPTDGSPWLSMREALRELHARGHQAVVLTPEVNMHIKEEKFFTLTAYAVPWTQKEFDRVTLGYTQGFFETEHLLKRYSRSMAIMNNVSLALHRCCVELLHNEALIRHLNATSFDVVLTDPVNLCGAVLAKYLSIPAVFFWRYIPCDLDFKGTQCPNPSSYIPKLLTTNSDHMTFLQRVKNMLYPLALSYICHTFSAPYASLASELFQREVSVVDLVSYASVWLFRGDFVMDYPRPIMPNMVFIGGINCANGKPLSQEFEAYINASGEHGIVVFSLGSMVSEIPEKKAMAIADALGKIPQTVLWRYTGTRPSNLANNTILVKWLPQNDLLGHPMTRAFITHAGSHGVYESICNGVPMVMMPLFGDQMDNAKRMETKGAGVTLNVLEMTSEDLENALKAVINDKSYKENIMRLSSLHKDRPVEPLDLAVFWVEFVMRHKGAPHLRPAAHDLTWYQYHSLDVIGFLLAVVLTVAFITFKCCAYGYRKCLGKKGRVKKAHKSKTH

[4] = Sulfate conjugation of opicapone in human intestinal S9; format: in vitro ADME; settings: human intestinal S9 fraction (HIS9), pH 7.4
[5] = format: in vivo, rat; settings: rat, plasma, po, 1 g/kg
[6] = low solubility compound; ref unpublished information; cited from earlier work

Cc1c(Cl)c(C)[n+]([O-])c(Cl)c1-c1noc(-c2cc(O)c(O)c([N+](=O)[O-])c2)n1 [opicapone, 2,5‐dichloro‐3‐(5‐(3,4‐dihydroxy‐5‐nitrophenyl)‐1,2,4‐oxadiazol‐3‐yl)‐4,6‐dimethylpyridine 1‐oxide]
Apparent terminal elimination half-life (t1/2) [1]: 48 to 192 min | Km [2]: 27.9 ± 6.4 µM | Metabolite formation (screening) (UGT 2B17): No metabolite formation was detected | Km [3]: 20.5 ± 2.6 µM | Formation of BIA 9-1106 (screening) (UGT 1A1): little amounts | Metabolite formation (screening) (UGT1A4): No metabolite formation was detected | Km [4]: 8.2 ± 1.1 µM | Cmax [5]: 7090 ng/mL | Biopharmaceutics Classification System class [6]: class II
